Experimental findings from patent publication US11873295B2, “Allosteric chromenone inhibitors of phosphoinositide 3-kinase (PI3K) for the treatment of disease” (Petra Pharma Corporation, priority 2021, dated 2024) are described below.

Molecules are shown by their SMILES. pIC50: −log10 of the molar value.

Assay [1] deals with T1, human full length PIK3KA Wild-type (p110α/p85α complex) (Homo sapiens, UniProt P42336).
T1 construct: Recombinant, catalytically active human full length PIK3KA Wild-type and H1047R mutant were purchased as 1:1 complex; 6xHis (N); purchased EMD Millipore Sigma 14-602M
Nature of the assay: PI3K-alpha kinase (PIK3CA) biochemical activity, wild-type, ADP-Glo. The following applies: PI3K-α (PIK3CA) biochemical. The text has this:
(§1) PI3K-Alpha Kinase (PIK3CA) Activity, Wild-Type and H1047R Mutant and Determining IC50 Values for Inhibitors
(§2) Recombinant, catalytically active human full length PIK3KA Wild-type and H1047R mutant were purchased as 1:1 complex of N-terminal 6× his tagged p110α (catalytic) and untagged p85α (regulatory subunit) from EMD Millipore Sigma (cat. no. 14-602M and 14-792M, respectively). PIP2diC8 (Avanti Polar Lipids Inc., cat. no. 850185) or Soy PI (Avanti Polar Lipids Inc., cat. No. 840044P) was used as lipid substrate. PIP2diC8 or PI lyophilized powder was dissolved in milliQ water to a concentration of 1 mM just before use. 10 mM stock compounds in DMSO were serially diluted 1:3 to generate a 10-point curve and plated using an acoustic liquid handler system (Echo 550 series instrument, Labcyte). A 10× intermediate compound plate (200 uM starting compound concentration and 10% DMSO) was prepared before starting the reaction. A typical reaction mixture (50 uL) comprised 40 mM HEPES buffer, pH 7.4, 25 mM MgCl2, 0.01% v/v triton-X-100, 1% v/v DMSO, 20 mM NaCl, 1-5 nM WT or H1047R PI3K protein, 20 uM ATP, and 50 uM PIP2diC8 or Soy PI. 1% DMSO buffer alone without test compound was employed as MAX control (full activity in the absence of any inhibitor), and no enzyme control was used to determine the level of background Adenosine 5′-diphosphate (ADP) (MIN control). First, Wild-type (WT) and H1047R mutant protein in kinase buffer with all components except ATP were incubated with or without compound at 27° C. for 1 h. After the pre-incubation, the reaction was initiated by the addition of 20 uL of 50 uM ATP (20 uM final concentration). The reaction was allowed to proceed until about 10% conversion of ATP (2 uM ADP) at 27° C. After that time, 5 uL of reaction was mixed with 5 uL of ADP-Kinase Glo Reagent (ADP-Glo Kinase assay kit, Promega cat. no. V9102) supplemented with MgCl2 10 mM to stop the reaction and deplete the remaining ATP for 40 min at room temperature. Then, 10 uL of Kinase Detection Reagent (ADP-Glo Kinase assay kit, Promega cat. no. V9102) was added to simultaneously convert ADP to ATP and allow the newly synthesized ATP to be measured using a luciferase/luciferin reaction. After 30 min at room temperature the light generated was measured using a luminometer (EnVision plate reader, Perkin Elmer). Process data through Genedata-Screener tool. Relative IC50 values are determined using luminescence units by calculating percent inhibition with respect to on-plate “MIN” and “MAX” controls. Data was analyzed using a 4-parameter nonlinear logistic equation (four-parameter logistic concentration-response curve): Y=bot+[(top−bot)/1+(x/IC50)slope] where Y=% inhibition, X=concentration yielding y % inhibition, Bottom=minimum value of y attained by curve, Top=maximum value of y attained by curve and Slope=steepness of curve at IC50. % Inh=[(median Max−x/median Max−median Min)]·100 IC50: concentration of compound that reduces a given response (ligand binding, enzyme response) by 50%. IC50 relative: concentration giving half the compound's maximum response.
(§3) For IC50 values shown in Table A, “A” means IC50<0.5 μM; “B” means IC50 ranging between 0.5 μM and 1.0 μM; “C” means IC50 ranging between 1 μM and 5 μM; “D” means IC50 ranging between 5 μM and 10 μM; “E” means IC50>10 μM.

Assay [2] deals with T2, human full length PIK3KA H1047R mutant (p110α/p85α complex) (Homo sapiens, UniProt P42336, H1047R).
T2 construct: Recombinant, catalytically active human full length PIK3KA Wild-type and H1047R mutant were purchased as 1:1 complex; 6xHis (N); purchased EMD Millipore Sigma 14-792M
T2 sequence (P42336 whole entry H1047R): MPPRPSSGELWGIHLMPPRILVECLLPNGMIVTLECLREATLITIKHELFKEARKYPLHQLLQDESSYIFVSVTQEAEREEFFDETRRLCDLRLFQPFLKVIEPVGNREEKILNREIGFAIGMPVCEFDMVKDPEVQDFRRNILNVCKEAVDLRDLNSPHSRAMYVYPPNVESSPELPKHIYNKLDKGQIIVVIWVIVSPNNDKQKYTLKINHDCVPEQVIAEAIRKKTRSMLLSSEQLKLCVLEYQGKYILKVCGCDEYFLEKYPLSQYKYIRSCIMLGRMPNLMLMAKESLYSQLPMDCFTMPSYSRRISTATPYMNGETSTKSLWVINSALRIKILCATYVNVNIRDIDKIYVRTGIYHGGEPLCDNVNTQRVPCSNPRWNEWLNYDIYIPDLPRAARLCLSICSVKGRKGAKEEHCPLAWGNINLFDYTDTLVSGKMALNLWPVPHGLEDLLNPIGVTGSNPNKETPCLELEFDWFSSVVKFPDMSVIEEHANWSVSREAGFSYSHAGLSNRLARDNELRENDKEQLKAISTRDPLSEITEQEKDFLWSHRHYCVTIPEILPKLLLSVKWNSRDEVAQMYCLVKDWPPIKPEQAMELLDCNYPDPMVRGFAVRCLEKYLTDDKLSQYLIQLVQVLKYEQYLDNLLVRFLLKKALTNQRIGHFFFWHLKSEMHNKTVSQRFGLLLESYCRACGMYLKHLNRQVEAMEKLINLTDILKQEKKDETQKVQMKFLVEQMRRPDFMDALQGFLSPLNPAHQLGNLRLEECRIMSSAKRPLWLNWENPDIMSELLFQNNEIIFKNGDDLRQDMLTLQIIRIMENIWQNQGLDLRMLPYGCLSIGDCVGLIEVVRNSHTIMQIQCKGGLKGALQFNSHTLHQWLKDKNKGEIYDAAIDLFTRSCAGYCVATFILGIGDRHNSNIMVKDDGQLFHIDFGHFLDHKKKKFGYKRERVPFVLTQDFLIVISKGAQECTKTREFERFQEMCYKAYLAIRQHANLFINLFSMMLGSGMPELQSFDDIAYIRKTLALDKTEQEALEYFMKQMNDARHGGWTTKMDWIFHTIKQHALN
T2 sequence (P27986 whole entry partner): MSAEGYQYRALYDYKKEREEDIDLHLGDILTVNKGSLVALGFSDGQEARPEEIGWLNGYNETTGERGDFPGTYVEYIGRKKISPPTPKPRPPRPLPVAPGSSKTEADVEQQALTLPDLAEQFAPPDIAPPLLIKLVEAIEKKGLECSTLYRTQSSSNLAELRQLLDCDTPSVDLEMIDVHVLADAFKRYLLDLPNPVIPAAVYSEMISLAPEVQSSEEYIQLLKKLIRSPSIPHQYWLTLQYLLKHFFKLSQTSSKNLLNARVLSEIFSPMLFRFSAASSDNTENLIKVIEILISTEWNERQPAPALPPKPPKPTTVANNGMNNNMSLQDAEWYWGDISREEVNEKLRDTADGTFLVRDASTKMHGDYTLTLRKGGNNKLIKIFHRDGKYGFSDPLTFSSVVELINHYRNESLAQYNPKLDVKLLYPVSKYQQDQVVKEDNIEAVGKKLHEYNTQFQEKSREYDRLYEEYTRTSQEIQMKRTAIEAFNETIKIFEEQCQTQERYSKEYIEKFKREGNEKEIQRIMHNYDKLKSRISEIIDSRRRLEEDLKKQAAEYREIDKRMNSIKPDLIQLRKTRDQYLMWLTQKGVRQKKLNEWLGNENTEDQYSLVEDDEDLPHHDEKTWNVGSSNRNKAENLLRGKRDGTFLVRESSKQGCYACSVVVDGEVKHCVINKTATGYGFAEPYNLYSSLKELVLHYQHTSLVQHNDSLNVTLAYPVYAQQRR
Nature of the assay: PI3K-alpha kinase (PIK3CA) biochemical activity, H1047R mutant, ADP-Glo. The conditions noted are these: for pIC50: PI3K-α (PIK3CA) biochemical, H1047R mutant.
Source text: as §1, §2, §3

The mark [3] stands for this setting: PIP2diC8 lipid substrate (footnote 1).

Take `Cc1cc(C(C)Nc2ccccc2C(=O)O)c2oc(-c3ccccc3)c(C#N)c(=O)c2c1` (stereo not shown) [Example 10, 2-[1-(3-Cyano-6-methyl-4-oxo-2-phenyl-chromen-8-yl)ethylamino]benzoic acid 2,2,2-trifluoroacetic acid]: the pIC50 in assay [1] (Soy PI lipid substrate) was 5.30 to 6.00; in assay [2] (Soy PI lipid substrate), above 6.30.

`Cc1cc([C@@H](C)Nc2ccccc2C(=O)O)c2oc(-c3ccccc3F)cc(=O)c2c1` [Example 11, 2-[[(1R)-1-[2-(2-Fluorophenyl)-6-methyl-4-oxo-chromen-8-yl]ethyl]amino]benzoic acid]: the pIC50 in assay [1] (Soy PI lipid substrate) is 5.30 to 6.00; in assay [2] (Soy PI lipid substrate), above 6.30.

In the case of `Cc1cc(C(C)Nc2ccccc2C(=O)O)c2oc(-c3ccc(C4(C)CC4)cc3)cc(=O)c2c1` (stereo not shown) [Example 12, 2-[1-[6-Methyl-2-[4-(1-methylcyclopropyl)-phenyl]-4-oxo-chromen-8-yl]ethylamino]benzoic acid 2,2,2-trifluoroacetic acid], the figures for the pIC50 in assay [1] (Soy PI lipid substrate) and in assay [2] (Soy PI lipid substrate) were 5.00 to 5.30 and 6.00 to 6.30, respectively.

With `Cc1cc(C(C)Nc2ccccc2C(=O)O)c2oc(-c3cccc(-c4cnn(C)c4)c3)cc(=O)c2c1.O=C(O)C(F)(F)F` (stereo not shown) [Example 13, 2-[1-[6-Methyl-2-[3-(1-methylpyrazol-4-yl)phenyl]-4-oxo-chromen-8-yl]ethylamino]benzoic acid 2,2,2-trifluoroacetic acid], the pIC50 in assay [1] (Soy PI lipid substrate) is 5.30 to 6.00; in assay [2] (Soy PI lipid substrate), above 6.30. In addition, in assay [2] (ratio of biochemical IC50 wild-type to H1047R mutant, Soy PI lipid substrate), the “IC50 WT/IC50 H1047R” value is “*For Example 13, IC50 WT/IC50 H1047R = 7.7”.

For the compound `Cc1cc([C@@H](C)Nc2ccccc2C(=O)O)c2oc(-c3cccc(C#N)c3)cc(=O)c2c1` [Example 16, 2-[[(1R)-1-[2-(3-Cyanophenyl)-6-methyl-4-oxo-chromen-8-yl]ethyl]amino]benzoic acid], the pIC50 in assay [1] (setting [3]) is 6.00 to 6.30; in assay [2] (setting [3]), above 6.30.

As for `Cc1cc([C@@H](C)Nc2ccccc2C(=O)O)c2oc(-c3ccc(C#N)cc3)cc(=O)c2c1` [Example 17, 2-[[(1R)-1-[2-(4-Cyanophenyl)-6-methyl-4-oxo-chromen-8-yl]ethyl]amino]benzoic acid], the pIC50 in assay [1] (setting [3]) and in assay [2] (setting [3]) was above 6.30 each time.

As for `Cc1cc([C@@H](C)Nc2ccccc2C(=O)O)c2oc(-c3cccc(F)c3)cc(=O)c2c1` [Example 18, 2-[[(1R)-1-[2-(3-Fluorophenyl)-6-methyl-4-oxo-chromen-8-yl]ethyl]amino]benzoic acid], the pIC50 in assay [1] (setting [3]) and in assay [2] (setting [3]) was above 6.30 each time.

Regarding `Cc1cc([C@@H](C)Nc2ccccc2C(=O)O)c2oc(-c3ccc(F)cc3)cc(=O)c2c1` [Example 19, 2-[[(1R)-1-[2-(4-Fluorophenyl)-6-methyl-4-oxo-chromen-8-yl]ethyl]amino]benzoic acid], the pIC50 in assay [1] (setting [3]) was 5.30 to 6.00; in assay [2] (setting [3]), above 6.30.

In the case of `Cc1cc([C@@H](C)Nc2ccc(F)cc2C(=O)O)c2oc(-c3ccccc3)cc(=O)c2c1` [Example 20, 5-Fluoro-2-[[(1R)-1-(6-methyl-4-oxo-2-plienyl-chromen-8-yl)ethyl]amino]benzoic acid], the pIC50 in assay [1] (setting [3]) and in assay [2] (setting [3]) was above 6.30 in each case.

Take `Cc1cc([C@@H](C)Nc2ccccc2C(=O)O)c2oc(-c3ccccc3)cc(=O)c2c1` [Example 22, 2-[[(1R)-1-(6-Methyl-4-oxo-2-phenyl-chromen-8-yl)ethyl]amino]benzoic acid]: the pIC50 in assay [1] (setting [3]) and in assay [2] (setting [3]) was above 6.30 each time.

As to `Cc1cc(C(C)Nc2sc(C)nc2C(=O)O)c2oc(-c3ccccc3)cc(=O)c2c1` (stereo not shown) [Example 23, 2-Methyl-5-[1-(6-methyl-4-oxo-2-phenyl-chromen-8-yl)ethylamino]-thiazole-4-carboxylic acid 2,2,2-trifluoroacetic acid], the pIC50 in assay [1] (Soy PI lipid substrate) was 5.00 to 5.30; in assay [2] (Soy PI lipid substrate), above 6.30.

With `C[C@@H](Nc1ccccc1C(=O)O)c1cc(F)cc2c(=O)cc(-c3ccccc3)oc12` [Example 24, 2-[[(1R)-1-(6-Fluoro-4-oxo-2-phenyl-chromen-8-yl)ethyl]amino]benzoic acid], the pIC50 in assay [1] (Soy PI lipid substrate) was 5.30 to 6.00; in assay [2] (Soy PI lipid substrate) it was above 6.30.

As to `Cc1cc([C@@H](C)Nc2ccc(C(F)(F)F)nc2C(=O)O)c2oc(-c3ccccc3)cc(=O)c2c1` [Example 27, 3-[[(1R)-1-(6-Methyl-4-oxo-2-phenyl-chromen-8-yl)ethyl]amino]-6-(trifluoromethyl)-pyridine-2-carboxylic acid], the pIC50 in assay [1] (Soy PI lipid substrate) was 5.30 to 6.00; in assay [2] (Soy PI lipid substrate), above 6.30.

Take `Cc1cc([C@@H](C)Nc2ccccc2C(=O)O)c2oc(-c3ccccc3C#N)c(C)c(=O)c2c1` [Example 34, 2-[[(1R)-1-[2-(2-Cyanophenyl)-3,6-dimethyl-4-oxo-chromen-8-yl]ethyl]amino]benzoic acid]: the figures for the pIC50 in assay [1] (Soy PI lipid substrate) and in assay [2] (Soy PI lipid substrate) were below 5.00 and above 6.30, respectively.

Take `Cc1cc(C(C)Nc2ccccc2C(=O)O)c2oc(-c3ccc(N4CCCC4)cc3)cc(=O)c2c1` (stereo not shown) [Example 45, 2-[1-[6-Methyl-4-oxo-2-(4-pyrrolidin-1-ylphenyl)chromen-8-yl]ethylamino]benzoic acid 2,2,2-trifluoroacetic acid]: the pIC50 in assay [1] (Soy PI lipid substrate) is below 5.00; in assay [2] (Soy PI lipid substrate), above 6.30.

As for `Cc1cc([C@@H](C)Nc2ccc(C)nc2C(=O)O)c2oc(-c3ccccc3)cc(=O)c2c1` [Example 46, 6-Methyl-3-[[(1R)-1-(6-methyl-4-oxo-2-phenyl-chromen-8-yl)ethyl]amino]-pyridine-2-carboxylic acid], the pIC50 in assay [1] (Soy PI lipid substrate) was 5.00 to 5.30; in assay [2] (Soy PI lipid substrate), above 6.30.

For the compound `Cc1cc([C@@H](C)Nc2ccccc2C(=O)O)c2oc(-c3ccc(C#N)cc3F)cc(=O)c2c1` [Example 51, 2-[[(1R)-1-[2-(4-Cyano-2-fluoro-phenyl)-6-methyl-4-oxo-chromen-8-yl]ethyl]amino]benzoic acid 2,2,2-trifluoroacetic acid], the pIC50 in assay [1] (Soy PI lipid substrate) was 5.30 to 6.00; in assay [2] (Soy PI lipid substrate), above 6.30.

Take `Cc1cc([C@@H](C)Nc2ccccc2C(=O)O)c2oc(-c3ccc(C#N)c(F)c3)cc(=O)c2c1` [Example 56, 2-[[(1R)-1-[2-(4-Cyano-3-fluoro-phenyl)-6-methyl-4-oxo-chromen-8-yl]ethyl]amino]benzoic acid 2,2,2-trifluoroacetic acid]: the pIC50 is 5.30 to 6.00 in assay [1] (Soy PI lipid substrate) and above 6.30 in assay [2] (Soy PI lipid substrate).

On to `Cc1cc([C@@H](C)Nc2ccccc2C(=O)O)c2oc(-c3ccc(F)cc3F)cc(=O)c2c1` [Example 57, 2-[[(1R)-1-[2-(2,4-Difluorophenyl)-6-methyl-4-oxo-chromen-8-yl]ethyl]amino]benzoic acid 2,2,2-trifluoroacetic acid], for which the pIC50 in assay [1] (Soy PI lipid substrate) was 5.30 to 6.00; in assay [2] (Soy PI lipid substrate) it was above 6.30.

For `CC(Nc1ccccc1C(=O)O)c1cc(F)c(F)c2c(=O)cc(-c3ccccc3)oc12` (stereo not shown) [Example 64, 2-[1-(5,6-Difluoro-4-oxo-2-phenyl-chromen-8-yl)ethylamino]benzoic acid 2,2,2-trifluoroacetic acid], the results for the pIC50 in assay [1] (Soy PI lipid substrate) and in assay [2] (Soy PI lipid substrate) were below 5.00 and above 6.30, respectively.

`Cc1cc([C@@H](C)Nc2c(Cl)ccc(F)c2C(=O)O)c2oc(-c3ccccc3)c(C)c(=O)c2c1` [Example 65, 3-Chloro-2-[[(1R)-1-(3,6-dimethyl-4-oxo-2-phenyl-chromen-8-yl)ethyl]amino]-6-fluoro-benzoic acid]: the pIC50 in assay [1] (Soy PI lipid substrate) and in assay [2] (Soy PI lipid substrate) was below 5.00 in each case.
